Entries after “also recorded” stand apart in the source; their conditions may differ.
Legend:
Type in all cases: cell-based
HPV16 PsVs [1] = assay: HPV16 PsV binding to CHO mutant cells (L1 immunoblot); settings: 3 μM, 30 min pre-treatment
Experimental: FIG. 7. HPV binding and infection of CHO mutant cells in the presence of polyR. CHO mutant pgsA-745 cells (GAG deficient) and CHO mutant pgsD-677 cells (HS deficient) were grown in Ham's F12 medium supplemented with 10% fetal bovine serum and 1% Glutamax (Invitrogen, Thermo Fisher Scientific, Inc., Carlsbad, Calif.). (A) Cells were incubated with 3 μM polyR in the medium for 30 minutes before adding HPV16 PsVs and incubating at 4° C. for one hour. After extensive washing with PBS, cells were lysed and analyzed for the content of L1, as described in FIG. 4A. (B) Semi-confluent CHO-pgsA were treated with 3 μM polyR for one hour prior to adding HPV16 PsVs. Infection was scored at 24 hours post infection as described in FIG. 1. (C) Semi-confluent CHO-pgsD cells were treated with 3 μM polyR for one hour prior to adding HPV16 PsVs. Infection was scored at 24 hours post infection as described in FIG. 1.
To test the effects of polyR on cells that differentially express heparan sulfate versus heparan sulfonated proteoglycans, like glycosaminoglycans (GAGs), genetically mutant clones of Chinese hamster ovary (CHO) cell lines were used. […] First, the effect of polyR on HPV16 PsV binding to these mutant cells was measured.

HPV16 PsVs [2] = assay: Dissociation of cell-bound HPV16 PsVs from HaCaT cells (L1 immunoblot); settings: 3 μM added to HPV-bound HaCaT cells, 1 h 4° C.
Experimental: (§1) (A) HPV16 PsVs were bound to HaCaT cells (one hour at 4° C.), before the addition of […]. After a one-hour incubation at 4° C., unbound virus was washed out, cells were lysed and analyzed for the content of HPV L1 protein. (B) HaCaT cells were exposed to HPV 16 PsV at 4° C. in the absence of polyR, simultaneously with polyR (0 h), or one hour after polyR treatment (+1 h). After extensive washing with PBS, cells were lysed and analyzed for the content of HPV16 L1 protein.
FIG. 19. […] HPV16 PsVs were bound to HaCaT cells (one hour in cold), before the addition of 5 μM PrS. After a one-hour incubation at 4° C., unbound virus was washed out, cells were lysed, and HPV L1 protein content was measured as described in FIG. 16.
To determine whether polyR could cause HPV16 dissociation from cells, HPV16 PsVs were bound to HaCaT cells for one hour at 4° C. After washing away unbound virus, HPV-bound cells were incubated with 3 μM polyR for one hour at 4° C.; control cells were untreated. Cells were lysed and analyzed for HPV L1 protein content. […]
The post-attachment inhibitory effects of PrS could be due the displacement of capsids from the cell surface. […] After a one-hour incubation at 4° C., unbound virus was washed out, cells were lysed, and the HPV L1 protein content was analyzed.

HPV16 PsVs [3] = assay: HPV16 PsV binding to HaCaT cells at 4° C. (L1 immunoblot / immunofluorescence)
Experimental: FIG. 4. PolyR treatment of host cells inhibits HPV16 binding to cells. (A) Confluent HaCaT cell monolayers were treated with 1 μM polyR (in CM) for 30 minutes, before adding 100 vge/cell HPV16 PsVs, and incubated at 4° C. for one hour (to promote binding but prevent virus internalization). After washing out of unbound virus, cells were lysed (25 mM Tris pH7.5, 150 mM NaCl, 1% Triton-X100 supplemented with protease inhibitors) and centrifuged at 16,000×g for 10 minutes. Protein concentrations in supernatant were measured using the Bradford method (Bio-Rad Laboratories, Inc., Hercules, Calif.). Samples were boiled in SDS-containing sample buffer, and aliquots containing equal amount of protein ([…] to 200 μg) separated by SDS-polyacrylamide gel electrophoresis (SDS-PAGE), using 10% gel. Proteins were transferred onto polyvinylidene difluoride (PVDF) membranes and subjected to analysis using anti-HPV16 L1 primary antibody (Camvir-1, sc-47699, Santa Cruz Biotechnology, Inc., Dallas, Tex.;1:5000 dilution) for detection of HPV16 major capsid protein, L1. Proteins were visualized by enhanced chemiluminescence (SUPERSIGNAL West Pico Chemiluminescent Substrate, Thermo Fisher Scientific, Inc., Waltham, Mass.) and exposed to film (Phenix Research Products, Candler, N.C.). (B) Immunofluorescence assays were performed essentially as described previously (Surviladze et al., 2012. PLoS Pathogens 8:e1002519). HaCaT cells were grown on coverslips at approximately 50% confluence and treated with 3 μM polyR for 30 minutes at 37° C. before the addition of 1000 vge of HPV16 PsVs per coverslip. Cells were incubated for one hour at 4° C. and washed several times with PBS, before the fixation with 4% paraformaldehyde (PFA). BSA-blocked cells were incubated with rabbit polyclonal HPV16 antibody (antibody was affinity-purified from rabbit anti-HPV VLP antisera). PBS-washed slides were incubated with donkey AF488-conjugated anti-rabbit IgG secondary antibody; phalloidin-rhodamine (Cytoskeleton, Inc., Denver, Colo.) was used for actin staining. After extensive washing with PBS, cells were mounted in Gold Antifade and immunofluorescent (IF) images were captured by confocal photo-microscopy.
as §1
FIG. 16. PrS pretreated cells binding of HPV16. Confluent HaCaT cell monolayers were treated with 1 μM PrS (in CM) before the addition of 200 vge/cell HPV16 PsVs and incubated at 4° C. for one hour (conditions to prevent virus internalization). After washing out of unbound virus, cells were lysed (25 mM Tris pH7.5, 150 mM NaCl, 1% Triton-X100 supplemented with protease inhibitors) and centrifuged at 16,000×g for 10 minutes. Protein concentrations in supernatant were measured using the Bradford method (Bio-Rad Laboratories, Inc., Hercules, Calif.). Samples were boiled in SDS-containing sample buffer, and aliquots containing equal amount of protein (˜50 μg to 200 μg) separated by SDS-polyacrylamide gel electrophoresis (SDS-PAGE) using 10% gel. […]

In the case of poly-L-arginine [polyR], the “HPV16 PsV binding” value (HPV16 PsVs [1]; CHO pgsA-745 cells (GAG deficient)) is reported as “did not prevent HPV binding; also recorded: increased binding was observed”, the “HPV16 PsV binding” value (HPV16 PsVs [1]; CHO pgsD-677 cells (HS deficient)) is reported as “did not prevent HPV binding” and the “release of HPV16 from cell membrane” value (HPV16 PsVs [2]) is reported as “did not induce the release of HPV16 from the cell membrane”. For the same substance, the “HPV16 binding to pre-treated cells (L1 immunoblot)” value (HPV16 PsVs [3]; 1 μM, 30 min pre-treatment, 100 vge/cell, 4° C. 1 h) was “almost completely blocked HPV16 binding”, the “HPV16 bound to cell surface (confocal microscopy)” value (HPV16 PsVs [3]; 3 μM, 30 min pre-treatment, 4° C. 1 h) was “dramatically reduced detection of HPV bound to the cell surface” and the “reduction of HPV binding to cells” value (HPV16 PsVs [3]; polyR and HPV added simultaneously, 4° C.) was “≈ 50%”.

— US11045519B2, “Arginine-rich polypeptide compositions and methods of using same” (UNM Rainforest Innovations, priority 2017, dated 2021)
